# Data as given in patent publication US4778802A, “Heterocyclic compounds” (John Wyeth & Brother, Ltd., priority 1985, dated 1988).
# Read-outs that look alike come from different tables or passages of the source.
# Legend:
# [1] = tested on: pCA-induced 5-HT syndrome; test: Inhibition of p-chloroamphetamine (pCA)-induced stereotypy in rats, p.o.; assay type: in vivo, male Sprague-Dawley rats; conditions: for inhibition of syndrome at 50 mg/kg: 50 mg/kg p.o.; for ED50: Rattus norvegicus, po; for antagonism of pCA-induced stereotypy (in words): 5 dose levels
# Method: Representative compounds of this invention were tested for their ability to inhibit pCA induced syndrome in rats by the standard procedure described below:
# (§1) Inhibition of p-chloroamphetamine (pCA)-induced stereotypy
# Vehicle or drug (5 dose levels) were administered p.o. to six groups of 6-8 male Sprague-Dawley rats (300-400 g) followed, 90 minutes later, by pCA (10 mg/kg i.p.). The animals were then placed in individual observation chambers and, 30 minutes after pCA administration, the intensity of the pCA-induced 5-HT syndrome was assessed according to the following scoring system:
# head-weaving 0, 1, 2 or 3 according to
# fore-paw treading severity
# (§2) tremor 0 (absent) or 1 (present)
# Therefore, the maximum score for each animal was 10.
# (§3) The inhibition of pCA induced stereotypy is calculated for each dose level as follows: [formula] where
# C=control group total score at 30 minutes post pCA.
# T=group total score of treated group at 30 minutes post pCA.
# For each dose a % effect is calculated.
# The results obtained from the tests using 5 different dose levels of the drug allow the ED50 value (i.e. the dose required to produce 50% inhibition of pCA induced stereotypy) to be calculated.
# The test was carried out using the free bases except for compound C which was tested in the form if its maleate salt and the result corrected for amount of active material.
# [2] = tested on: 5-HT uptake into rat brain synaptosomes; test: Inhibition of 5-HT uptake into rat brain synaptosomes; assay type: biochemical, male Sprague Dawley rats; conditions: for IC50: 37°, 4 minutes; for Selectivity Ratio (5-HT uptake relative to NA uptake): from IC50 NA and IC50 5-HT
# Method: (§4) In vitro tests have shown that compounds of formula I also have a marked degree of selectivity in inhibiting uptake of 5-HT into rat brain synaptosomes relative to uptake of ^3 H noradrenaline. The test procedure involved obtaining synaptosomal preparations from male Sprague Dawley rats according to the method of Grey and Whittaker* as modified by Wood & Wyllie.** Aliquots of the synaptosomal preparation were then incubated with tritrated noradrenaline (NA) or 5-HT at a temperature of 37° for 4 minutes. The active synaptosomal accumulation of labelled substrate was measured by filtration and scintillation counting. The effect at a range of concentrations of test compound enabled IC50 values and selectivity ratios to be calculated.
# [3] = tested on: 5-hydroxy-L-tryptophan induced behavioural syndrome; test: Potentiation of 5-hydroxytryptophan (5-HTP)-induced behaviour in rats; assay type: in vivo, male Sprague-Dawley rats; conditions: Rattus norvegicus, po
# Method: The compounds B and C were also tested for their ability to potentiate 5-hydroxy-L-tryptophan induced behavioural syndrome in rats. The test procedure is described below (updated from that described in UK No. 2073179B).
# Potentiation of 5-hydroxytryptophan (5-HTP)-induced behaviour
# Groups of 10 male Sprague-Dawley rats (310-360 g) were dosed p.o. with vehicle or drugs. Ninety minutes later 5-HTP (50 mg/kg s.c.) was administered and the animals placed in individual observation chambers (peripheral decarboxylation was prevented by 25 mg/kg i.p. carbidopa administered 60 minutes before 5-HTP). Head shakes were counted over the period 30-45 minutes after 5-HTP and the intensity of the 5-HT syndrome was scored immediately afterwards using the system described for the pCA procedure above. Percentage potentiation of syndrome was calculated as follows: […]
# 0, 1, 2 or 3 according to severity
# as §2
# Percentage potentiation was calculated from the following: [formula]
# [4] = tested on: 3H noradrenaline (NA) uptake into rat brain synaptosomes; test: Inhibition of 3H noradrenaline (NA) uptake into rat brain synaptosomes; assay type: biochemical, male Sprague Dawley rats; conditions: 37°, 4 minutes
# Method: as §4
# pCA-induced stereotypy = test: Duration of action: inhibition of pCA-induced stereotypy at various times after dosing; assay type: in vivo, male Sprague-Dawley rats; conditions: 6 mg/kg p.o.
# Method: as §1
# The animals were then placed in individual observation chambers and, 30 minutes after pCA administration, the intensity of the pCA-induced 5-HT syndrome was assessed according to the following scoring system:
# as §3
# pCA syndrome = test: Related duration test on pCA syndrome (with modified scoring); assay type: in vivo; conditions: 15 mg/kg
# [5] = rats, p.o., 90 min before pCA 10 mg/kg i.p., scored 30 min after pCA, free bases except C (maleate, corrected for active material), read-out: ED50 (dose required to produce 50% inhibition of pCA induced stereotypy)
# [6] = rats, p.o., 90 min before 5-HTP 50 mg/kg s.c., carbidopa 25 mg/kg i.p., value of C corrected for amount of active ingredient, read-out: ED50 (potentiation of 5-HTP-induced behavioural syndrome)
SMILES,inhibition of syndrome at 50 mg/kg ([1]; rats),"ED50 [1, 5] [mg/kg]","antagonism of pCA-induced stereotypy (in words) ([1]; rats, p.o.)",IC50 [2] [µM],Selectivity Ratio (5-HT uptake relative to NA uptake) [2],"ED50 [3, 6] [mg/kg]",IC50 [4] [µM],"% Inhibition of pCA induced stereotypy, time 2 (pCA-induced stereotypy; time 2 after administration of 5-HT inhibitor (time unit not given))","% Inhibition of pCA induced stereotypy, time 6 (pCA-induced stereotypy; time 6 after administration of 5-HT inhibitor (time unit not given)) [%]","% Inhibition of pCA induced stereotypy, time 12 (pCA-induced stereotypy; time 12 after administration of 5-HT inhibitor (time unit not given)) [%]","% Inhibition of pCA induced stereotypy, time 16 (pCA-induced stereotypy; time 16 after administration of 5-HT inhibitor (time unit not given)) [%]","ED50 ([3]; same test, corrected for amount of base, read-out: ED50 (potentiation of 5-HTP-induced behavioural syndrome), panuramine HCl salt) [mg/kg]","ED50 ([1]; same test, monohydrochloride corrected for amount of active ingredient, read-out: ED50 (inhibition of pCA induced stereotypy), panuramine) [mg/kg]",duration of action (in words) (pCA syndrome),inhibition after 16 hours (pCA syndrome; 16 hours) [%],inhibition after two hours (pCA syndrome; two hours) [%]
"O=C(NC(=O)c1ccc2ncccc2c1)NC1CCN(Cc2ccc3ccccc3c2)CC1 [A, N-[[[1-(2-naphthalenylmethyl)-4-piperidinyl]amino]-carbonyl]-6-quinolinecarboxamide]",99%,2.7,antagonised pCA-induced stereotypy in a dose-dependent manner,–,–,–,–,–,–,–,–,–,–,–,–,–
"O=C(NC(=O)c1ccc2ncccc2c1)NC1CCN(Cc2ccc3ncccc3c2)CC1 [B, N-[[[1-(quinol-6-ylmethyl)-4-piperidinyl]amino]-carbonyl]-6-quinolinecarboxamide]",99%,6.5,antagonised pCA-induced stereotypy in a dose-dependent manner,0.043,207,7.3,8.9,–,–,–,–,–,–,–,–,–
"O=C(NC(=O)c1ccc2ncccc2c1)NC1CCN(Cc2ccc3cc(F)ccc3c2)CC1 [C, N-[[[1-(6-fluoro-2-naphthalenylmethyl)-4-piperidinyl]-amino]-carbonyl]-6-quinolinecarboxamide]",99%,2.1,antagonised pCA-induced stereotypy in a dose-dependent manner,0.082,450,2.4,37,ca. 79%,82.8,56.9,57.6,–,–,–,–,–
"O=C(NC(=O)c1ccccc1)NC1CCN(Cc2ccc3ccccc3c2)CC1 [panuramine, 1-benzoyl-3-[1-(naphth-2-ylmethyl)piperid-4-yl]urea, reference compound]",ca. 78%,–,–,0.063,135,–,8.5,–,–,–,–,27.4,16.2,much shorter duration of action,12.2,65.1
